These results are taken from patent US11066399B2, “Ferroportin inhibitors” (Vifor (International) AG, priority 2015, dated 2021).

Each structure is given as a SMILES string.

The target of one assay is T1, human Fpn (Homo sapiens, UniProt Q9NP59).
T1 construct: FLAG (C); made in house; host or cells: Pichia pastoris
T1 sequence (Q9NP59 1-571): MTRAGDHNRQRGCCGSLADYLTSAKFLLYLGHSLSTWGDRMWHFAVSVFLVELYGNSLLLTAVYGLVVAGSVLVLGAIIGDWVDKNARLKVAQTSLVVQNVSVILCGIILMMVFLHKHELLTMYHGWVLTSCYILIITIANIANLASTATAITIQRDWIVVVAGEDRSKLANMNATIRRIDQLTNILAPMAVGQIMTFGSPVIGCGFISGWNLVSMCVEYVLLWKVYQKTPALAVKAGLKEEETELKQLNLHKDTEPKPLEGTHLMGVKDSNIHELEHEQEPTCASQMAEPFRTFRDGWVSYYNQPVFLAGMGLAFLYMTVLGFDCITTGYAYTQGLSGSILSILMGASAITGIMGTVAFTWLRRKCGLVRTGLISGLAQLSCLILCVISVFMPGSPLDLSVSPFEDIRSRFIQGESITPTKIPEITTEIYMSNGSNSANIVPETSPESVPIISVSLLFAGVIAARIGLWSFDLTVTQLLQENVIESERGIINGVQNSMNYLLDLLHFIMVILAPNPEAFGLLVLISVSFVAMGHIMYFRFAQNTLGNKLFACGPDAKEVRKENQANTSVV
In words: Biophysical Ferroportin-Hepcidin Binding Assay (fluorescence polarization). The note with it: average (AVE) of multiple measurements; TMR-hepcidin binding to purified human Fpn; read-out: FP IC50. The procedure: This biophysical assay was developed to confirm inhibition of hepcidin binding to ferroportin (Fpn) more directly. Incubation of TMR-hepcidin with purified human Fpn isolated from Pichia pastoris yeast cells expressing human Fpn with a C-terminal FLAG affinity tag (Bonaccorsi di Patti, 2014) leads to increased fluorescence polarization (FP) of the TMR-hepcidin ligand. Small molecular weight Fpn inhibitors were tested for inhibition of binding of TMR-hepcidin to Fpn, as detected by dose-dependent decrease of the TMR FP signal, as described in detail below.
A mixture of […] human Fpn and 30 nM TMR-hepcidin in FP assay buffer containing 50 mM Tris-HCl pH 7.3, 200 mM NaCl, 0.02% DDM, 0.1% BSA was plated into a 384 well black low volume round bottom plate (Corning, Cat. 3677) at 16 μl per well. 8 μl of serial dilutions of test compounds were added in duplicates to reach final Fpn and TMR-hepcidin concentrations of […] and 20 nM, respectively. Plates were incubated for 90 minutes at room temperature and parallel (S) and perpendicular (P) fluorescence was measured in a Synergy H1 fluorescence reader (BioTek). FP values were calculated in mP according to the following formula.

The target in assay [1] is T2, human Fpn-GFP fusion protein (Homo sapiens, UniProt Q9NP59).
T2 construct: expressed in transfected cells; host or cells: HEK-293 cell line #354 (derivative of HEK-293 Tet-ON Advanced, Clontech)
T2 sequence (Q9NP59 1-571): T1 sequence (Q9NP59 1-571)
Nature of the assay: Ferroportin Internalization and Degradation Assay (FACS). Type of assay: cell-based. The note with it: average (AVE) of multiple measurements, Fpn-GFP MFI, HEK-293 cell line #354, FACS. The procedure: Growing HEK-293 #354 cells in doxycycline containing media induced expression of human Fpn-GFP fusion protein on the cell surface. […] Small molecular weight Fpn inhibitor compounds were tested for dose-dependent effects on the Fpn-GFP mean fluorescence intensity (MFI) on HEK-293 cell line #354, as described below. HEK #354 cells were harvested from ca. 80% confluent cultures, seeded at 0.6×10^6 cells/ml in DMEM/F12 GlutaMAX™ medium (Invitrogen, Cat. 31331-028) containing 10% FBS (Clontech, Cat. 631106), 1% Penicillin-Streptomycin (Invitrogen, Cat. 15140-122), 200 μg/ml Hygromycin B (Invitrogen, Cat. 10687-010), Blasticidin 5 μg/ml, (Invitrogen, Cat. R210-01), 4 μg/ml doxycycline (Clontech, Cat. 631311), 50 μl per well of 384 well plates (Greiner; Cat. 781091) and grown at 37° C. with 5% CO2. After overnight incubation, 10 μl/well of dilution series of the test compounds were added in quadruplicates and plates were further incubated overnight at 37° C. with 5% CO2. Cells were washed once with FACS buffer (PBS containing 1% FBS, 2 mM EDTA and 0.05% NaN3), harvested in FACS buffer with 0.5 μg/ml propidium iodide (Sigma, Cat. P4864) and analyzed in a flow cytometer (CANTO™ II, BD Biosciences) equipped with high throughput sampler. Live HEK #354 cells were gated as propidium iodide negative population and analyzed for expression of Fpn-GFP.

The IC50 is the concentration needed to halve the response being measured. For orientation: EC50 means the midpoint of the concentration-response curve. The low end stands for an effect from little substance, the high end for a need for much substance. For the compound `O=C(NCc1ncccc1F)c1csc(CCNCc2nc3ccccc3[nH]2)n1` [Example 40], on human Fpn, the IC50 came out at 68 nM. Further, the EC50 in assay [1] came out at 810 nM.
The matching figures for `O=C(NCc1ncccc1F)c1cnc(CCNCCc2nc3ccccc3[nH]2)o1` [Example 1]: 16 nM and 220 nM.
Consider `O=C(NCc1ncccc1F)c1cnn(CCNCCc2cc3ccccc3[nH]2)c1` [Example 277], for which the DC50 in assay [1] (read-out: EC50 (the source's name)) was 69 nM.
Take `O=C(NCc1ncccc1F)c1cnc(C2CN(CCc3nc4ccccc4[nH]3)C2)o1` [Example 2]: the IC50 on human Fpn was 17 nM. In assay [1], this compound had an EC50 of 630 nM.
